Assay results published in ChEMBL document CHEMBL1132086, “Total synthesis of an antioxidant isolated from yeast via palladium-catalyzed coupling and its application for related compounds” (Bioorg Med Chem Lett, 1999).

Species: Cavia porcellus
Test: Antioxidative activity was evaluated by using the lipid peroxidation of guinea pig liver microsomes
Format: functional

Compound	IC50
COc1c2c(cc(O)c1-c1ccc(-c3ccccc3)cc1)OCO2	107 µM
COc1c2c(cc(O)c1-c1ccc(C)cc1)OCO2	65 µM
COc1c2c(cc(O)c1-c1cc3ccccc3o1)OCO2	98 µM
COc1c2c(cc(O)c1-c1ccccc1)OCO2	83 µM
Cc1c(C)c2c(c(C)c1O)CC[C@@](C)(CCC[C@H](C)CCC[C@H](C)CCCC(C)C)O2 [ALPHA-TOCOPHEROL]	280 µM

The next compounds have a lower IC50 than those just listed; values first:

IC50	Compound
56 µM	COc1ccc(-c2c(O)cc3c(c2OC)OCO3)cc1
44 µM	COc1c2c(cc(O)c1-c1cccs1)OCO2
50 µM	CCCOC(=O)c1cc(O)c(O)c(O)c1 [PROPYL GALLATE]
